Results as given in US20240210412A1, “SULFONYL-TRIAZOLE COMPOUNDS USEFUL AS LIGANDS AND INHIBITORS OF PROSTAGLANDIN REDUCTASE 2” (University of Virginia Patent Foundation, priority 2021, published 2024).

How the values were obtained:
Experiment in all cases: SILAC LC-MS ABPP
Assay type in all cases: cell-based
Conditions in all cases: 25 μM 2 h, live DM93 cells
[1] = molecular target: T1, Q8N6H7 (Homo sapiens, UniProt Q8N6H7)
T1 construct: endogenous in cells; host or cells: DM93 cells (SILAC), live-cell treatment
T1 sequence (Q8N6H7 whole entry): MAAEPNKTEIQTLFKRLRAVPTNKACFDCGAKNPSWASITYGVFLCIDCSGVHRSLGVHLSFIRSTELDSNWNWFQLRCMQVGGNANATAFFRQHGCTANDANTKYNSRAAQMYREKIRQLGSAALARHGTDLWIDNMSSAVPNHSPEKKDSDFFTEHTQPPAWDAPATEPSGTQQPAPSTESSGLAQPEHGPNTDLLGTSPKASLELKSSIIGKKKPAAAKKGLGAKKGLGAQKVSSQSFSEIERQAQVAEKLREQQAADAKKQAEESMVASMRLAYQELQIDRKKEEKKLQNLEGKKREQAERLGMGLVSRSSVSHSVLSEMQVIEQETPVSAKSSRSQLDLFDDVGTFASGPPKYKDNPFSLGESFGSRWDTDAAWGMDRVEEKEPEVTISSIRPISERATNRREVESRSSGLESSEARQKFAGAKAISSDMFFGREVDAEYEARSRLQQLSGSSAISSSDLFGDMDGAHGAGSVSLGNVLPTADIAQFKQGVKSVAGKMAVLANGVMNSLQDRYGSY
Method in brief: (§1)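 Chemical proteomics in DM93 melanoma, light/heavy SILAC pairs. Vehicle versus 25 μM covalent sulfonyl-triazole for 2 h (37 °C) in serum-free medium was followed by 100 μM HHS-475 labelling for 2 h; tyrosine sites were identified and quantified by LC-MS/MS of avidin-enriched tryptic peptides.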

[2] = molecular target: T2, P51665 (Homo sapiens, UniProt P51665)
T2 construct: endogenous in cells; host or cells: DM93 cells (SILAC)
Method in brief: as §1

[3] = molecular target: T3, O00267 (Homo sapiens, UniProt O00267)
T3 construct: endogenous in cells; host or cells: DM93
Method in brief: as §1

[4] = molecular target: T4, P43490 (Homo sapiens, UniProt P43490)
T4 construct: endogenous in cells; host or cells: DM93 cells (SILAC)
T4 sequence (P43490 whole entry): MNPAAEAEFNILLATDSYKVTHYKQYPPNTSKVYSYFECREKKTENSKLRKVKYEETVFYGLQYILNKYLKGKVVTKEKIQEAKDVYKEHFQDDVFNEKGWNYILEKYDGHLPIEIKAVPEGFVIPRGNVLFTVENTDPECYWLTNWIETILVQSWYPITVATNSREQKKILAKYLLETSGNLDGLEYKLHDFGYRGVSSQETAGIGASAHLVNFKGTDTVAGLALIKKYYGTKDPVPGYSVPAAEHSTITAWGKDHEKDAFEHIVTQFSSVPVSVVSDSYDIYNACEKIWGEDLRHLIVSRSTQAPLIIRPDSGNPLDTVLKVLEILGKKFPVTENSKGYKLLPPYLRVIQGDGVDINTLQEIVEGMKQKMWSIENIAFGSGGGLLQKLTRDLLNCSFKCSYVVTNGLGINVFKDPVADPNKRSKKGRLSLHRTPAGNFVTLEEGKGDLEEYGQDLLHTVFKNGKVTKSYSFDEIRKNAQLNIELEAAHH
Method in brief: as §1

[5] = molecular target: T5, P61978 (Homo sapiens, UniProt P61978)
T5 construct: performing SuTEx compound screening directly in cells; endogenous in cells; host or cells: DM93 cells (SILAC)
Method in brief: as §1

[6] = molecular target: T6, Q16576 (Homo sapiens, UniProt Q16576)
T6 construct: performing SuTEx compound screening directly in cells; endogenous in cells; host or cells: DM93 cells (SILAC), soluble fraction
T6 sequence (Q16576 whole entry): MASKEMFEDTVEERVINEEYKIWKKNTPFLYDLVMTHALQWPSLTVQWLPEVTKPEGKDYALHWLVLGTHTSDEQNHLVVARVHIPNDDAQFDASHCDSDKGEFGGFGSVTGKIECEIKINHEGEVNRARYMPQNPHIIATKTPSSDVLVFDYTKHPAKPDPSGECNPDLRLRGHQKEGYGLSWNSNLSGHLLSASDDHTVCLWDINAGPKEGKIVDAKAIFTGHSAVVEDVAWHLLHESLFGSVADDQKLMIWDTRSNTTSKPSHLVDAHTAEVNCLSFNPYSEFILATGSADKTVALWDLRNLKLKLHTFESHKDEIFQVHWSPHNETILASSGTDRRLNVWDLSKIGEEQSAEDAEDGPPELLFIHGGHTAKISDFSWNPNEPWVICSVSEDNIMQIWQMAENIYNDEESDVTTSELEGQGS
Method in brief: as §1

[7] = molecular target: T7, P30086 (Homo sapiens, UniProt P30086)
T7 construct: endogenous in cells; host or cells: DM93 (SILAC)
T7 sequence (P30086 whole entry): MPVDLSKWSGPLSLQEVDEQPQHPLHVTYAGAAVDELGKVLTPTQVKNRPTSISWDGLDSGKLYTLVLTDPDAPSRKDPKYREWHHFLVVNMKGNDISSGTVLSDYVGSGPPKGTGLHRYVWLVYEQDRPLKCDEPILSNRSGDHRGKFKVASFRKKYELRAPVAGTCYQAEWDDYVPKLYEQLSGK
Method in brief: as §1

[8] = molecular target: T8, P02794 (Homo sapiens, UniProt P02794)
T8 construct: endogenous in cells; host or cells: DM93 cells (SILAC)
T8 sequence (P02794 whole entry): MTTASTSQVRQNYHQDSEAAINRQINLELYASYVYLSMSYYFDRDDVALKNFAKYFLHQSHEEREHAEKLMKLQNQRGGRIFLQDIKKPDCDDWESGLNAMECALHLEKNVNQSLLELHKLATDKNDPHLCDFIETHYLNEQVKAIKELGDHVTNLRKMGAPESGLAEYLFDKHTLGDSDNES
Method in brief: as §1

[9] = molecular target: T9, P56945 (Homo sapiens, UniProt P56945)
T9 construct: Probe-modified proteins from the soluble fraction were conjugated to a desthiobiotin-azide tag; endogenous in cells; host or cells: DM93 cells (SILAC)
Method in brief: as §1

[10] = molecular target: T10, Q86XP3 (Homo sapiens, UniProt Q86XP3)
T10 construct: endogenous in cells; host or cells: DM93 cells (SILAC), live-cell treatment
T10 sequence (Q86XP3 whole entry): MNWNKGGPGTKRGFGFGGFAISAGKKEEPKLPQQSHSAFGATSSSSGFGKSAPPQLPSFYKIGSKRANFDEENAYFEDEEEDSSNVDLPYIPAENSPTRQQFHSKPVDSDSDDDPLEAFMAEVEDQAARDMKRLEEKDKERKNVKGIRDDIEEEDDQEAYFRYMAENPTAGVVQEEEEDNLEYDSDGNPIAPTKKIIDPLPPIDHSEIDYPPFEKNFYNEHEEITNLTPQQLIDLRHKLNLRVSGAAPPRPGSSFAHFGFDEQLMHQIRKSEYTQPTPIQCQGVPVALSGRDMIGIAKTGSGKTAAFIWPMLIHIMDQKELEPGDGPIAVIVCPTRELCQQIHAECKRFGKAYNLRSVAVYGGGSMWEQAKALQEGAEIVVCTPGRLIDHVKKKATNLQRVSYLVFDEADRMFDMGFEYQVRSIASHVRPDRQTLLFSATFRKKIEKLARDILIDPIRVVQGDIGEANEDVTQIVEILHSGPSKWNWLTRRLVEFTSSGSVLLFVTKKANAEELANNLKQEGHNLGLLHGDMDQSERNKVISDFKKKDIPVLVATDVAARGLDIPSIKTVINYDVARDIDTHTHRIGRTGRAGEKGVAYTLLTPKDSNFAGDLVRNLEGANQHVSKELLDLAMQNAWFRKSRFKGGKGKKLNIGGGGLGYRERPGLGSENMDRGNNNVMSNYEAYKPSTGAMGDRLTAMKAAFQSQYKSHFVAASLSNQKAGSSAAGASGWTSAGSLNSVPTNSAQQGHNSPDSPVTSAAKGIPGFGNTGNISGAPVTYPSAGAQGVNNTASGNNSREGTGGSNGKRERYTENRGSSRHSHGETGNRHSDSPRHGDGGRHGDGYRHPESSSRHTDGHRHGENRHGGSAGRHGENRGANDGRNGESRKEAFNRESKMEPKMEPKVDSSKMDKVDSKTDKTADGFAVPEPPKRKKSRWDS
Method in brief: as §1

[11] = molecular target: T11, P46940 (Homo sapiens, UniProt P46940)
T11 construct: endogenous in cells; host or cells: DM93 cells (SILAC)
Method in brief: as §1

[12] = molecular target: T12, Q9NV35 (Homo sapiens, UniProt Q9NV35)
T12 construct: endogenous in cells; host or cells: DM93 cells (SILAC), treated live; soluble proteome analysed
T12 sequence (Q9NV35 whole entry): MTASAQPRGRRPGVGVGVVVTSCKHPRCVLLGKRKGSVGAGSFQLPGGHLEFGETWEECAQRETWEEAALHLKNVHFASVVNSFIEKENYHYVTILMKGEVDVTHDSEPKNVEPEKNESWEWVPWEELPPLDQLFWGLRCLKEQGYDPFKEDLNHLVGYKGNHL
Method in brief: as §1

[13] = molecular target: T13, P06132 (Homo sapiens, UniProt P06132)
T13 construct: endogenous in cells; host or cells: DM93 cells (SILAC)
Method in brief: as §1

[14] = molecular target: T14, O95163 (Homo sapiens, UniProt O95163)
T14 construct: endogenous in cells; host or cells: DM93 cells (SILAC)
Method in brief: as §1

[15] = molecular target: T15, Q7Z460 (Homo sapiens, UniProt Q7Z460)
T15 construct: endogenous in cells; host or cells: DM93 cells (SILAC), live-cell treatment
T15 sequence (Q7Z460 whole entry): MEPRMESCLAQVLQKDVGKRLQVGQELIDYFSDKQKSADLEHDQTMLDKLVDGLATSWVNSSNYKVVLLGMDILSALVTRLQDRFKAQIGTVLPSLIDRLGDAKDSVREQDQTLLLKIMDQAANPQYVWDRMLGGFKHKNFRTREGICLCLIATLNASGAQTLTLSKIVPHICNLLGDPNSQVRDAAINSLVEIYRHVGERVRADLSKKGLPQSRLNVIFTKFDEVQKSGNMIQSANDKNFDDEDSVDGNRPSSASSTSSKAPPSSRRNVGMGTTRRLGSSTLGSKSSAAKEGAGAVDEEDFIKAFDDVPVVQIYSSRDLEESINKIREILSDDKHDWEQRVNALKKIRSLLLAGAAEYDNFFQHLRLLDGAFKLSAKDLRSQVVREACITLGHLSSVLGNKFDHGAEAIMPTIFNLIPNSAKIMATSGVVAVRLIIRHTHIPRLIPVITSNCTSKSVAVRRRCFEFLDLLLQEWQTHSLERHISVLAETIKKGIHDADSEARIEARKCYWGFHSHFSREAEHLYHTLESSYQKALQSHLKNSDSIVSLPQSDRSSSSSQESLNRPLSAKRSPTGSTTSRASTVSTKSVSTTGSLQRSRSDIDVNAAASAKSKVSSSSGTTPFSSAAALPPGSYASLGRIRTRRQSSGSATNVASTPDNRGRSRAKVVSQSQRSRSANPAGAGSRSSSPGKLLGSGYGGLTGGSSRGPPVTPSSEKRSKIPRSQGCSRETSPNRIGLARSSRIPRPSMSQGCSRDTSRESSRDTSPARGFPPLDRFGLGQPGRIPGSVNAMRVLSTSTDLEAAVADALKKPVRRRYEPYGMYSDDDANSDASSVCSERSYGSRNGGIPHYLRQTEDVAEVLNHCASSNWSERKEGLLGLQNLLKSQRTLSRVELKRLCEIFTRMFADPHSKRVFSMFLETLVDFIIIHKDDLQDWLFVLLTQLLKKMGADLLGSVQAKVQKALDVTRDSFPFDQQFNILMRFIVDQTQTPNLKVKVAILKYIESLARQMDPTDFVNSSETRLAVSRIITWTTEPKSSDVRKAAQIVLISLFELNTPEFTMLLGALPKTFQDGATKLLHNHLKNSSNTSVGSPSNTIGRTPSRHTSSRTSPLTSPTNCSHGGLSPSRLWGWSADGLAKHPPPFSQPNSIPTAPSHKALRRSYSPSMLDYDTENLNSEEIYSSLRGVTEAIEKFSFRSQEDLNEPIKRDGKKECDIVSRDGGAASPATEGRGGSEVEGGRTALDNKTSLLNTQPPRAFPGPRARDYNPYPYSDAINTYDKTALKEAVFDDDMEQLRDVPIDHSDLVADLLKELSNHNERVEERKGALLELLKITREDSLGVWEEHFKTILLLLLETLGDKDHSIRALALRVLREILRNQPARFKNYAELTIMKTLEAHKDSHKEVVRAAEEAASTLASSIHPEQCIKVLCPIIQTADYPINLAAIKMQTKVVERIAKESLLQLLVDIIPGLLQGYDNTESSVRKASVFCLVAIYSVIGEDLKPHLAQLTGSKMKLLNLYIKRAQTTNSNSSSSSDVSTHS
Method in brief: as §1

[16] = molecular target: T16, P04040 (Homo sapiens, UniProt P04040)
T16 construct: endogenous in cells; host or cells: DM93 cells (SILAC)
Method in brief: as §1

[17] = molecular target: T17, P68104 (Homo sapiens, UniProt P68104)
T17 construct: performing SuTEx compound screening directly in cells; endogenous in cells; host or cells: DM93 cells (SILAC)
Method in brief: as §1

[18] = molecular target: T18, P52597 (Homo sapiens, UniProt P52597)
T18 construct: endogenous in cells; host or cells: DM93 cells (SILAC)
T18 sequence (P52597 whole entry): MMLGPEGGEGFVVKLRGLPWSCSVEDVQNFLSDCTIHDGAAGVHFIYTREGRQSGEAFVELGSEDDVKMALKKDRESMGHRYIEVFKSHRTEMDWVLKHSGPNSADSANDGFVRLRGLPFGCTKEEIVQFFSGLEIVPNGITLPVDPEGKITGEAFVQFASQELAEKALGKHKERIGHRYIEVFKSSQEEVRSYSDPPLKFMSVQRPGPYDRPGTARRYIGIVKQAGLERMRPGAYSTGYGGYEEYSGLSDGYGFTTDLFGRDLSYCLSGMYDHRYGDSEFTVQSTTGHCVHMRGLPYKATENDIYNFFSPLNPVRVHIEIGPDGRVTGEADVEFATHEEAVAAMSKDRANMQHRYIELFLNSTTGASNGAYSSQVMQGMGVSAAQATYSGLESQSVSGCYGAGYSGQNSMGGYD
Method in brief: as §1

## O=C(c1ccc(S(=O)(=O)n2cncn2)cc1)N1CCC(c2ccccc2)CC1 [HHS-0701, (4-((1H-1,2,4-triazol-1-yl)sulfonyl)phenyl)(4-phenylpiperidin-1-yl)methanone]
[1]
  liganded tyrosine site 445: HHS0701.Y (tyrosine sites that showed >80% reductions (SR >5) in probe labeling in cells treated with compounds (liganded sites))
[2]
  liganded tyrosine site 74: HHS0701.Y (tyrosine sites that showed >80% reductions (SR >5) in probe labeling in cells treated with compounds (liganded sites))
[3]
  liganded tyrosine site 249: HHS0701.Y (tyrosine sites that showed >80% reductions (SR >5) in probe labeling in cells treated with compounds (liganded sites))
[4]
  liganded tyrosine site 188: HHS0701.Y (tyrosine sites that showed >80% reductions (SR >5) in probe labeling in cells treated with compounds (liganded sites))
[5]
  liganded tyrosine site 138: HHS0701.Y (tyrosine sites that showed >80% reductions (SR >5) in probe labeling in cells treated with compounds (liganded sites))

## O=C(NC1CCCCC1)c1ccc(S(=O)(=O)n2cncn2)cc1 [HHS-0301, 4-((1H-1,2,4-triazol-1-yl)sulfonyl)-N-cyclohexylbenzamide]
[6]
  liganded tyrosine site 153: HHS0301.Y|HHS0701.Y (tyrosine sites that showed >80% reductions (SR >5) in probe labeling in cells treated with compounds (liganded sites))
[7]
  liganded tyrosine site 106: HHS0301.Y (tyrosine sites that showed >80% reductions (SR >5) in probe labeling in cells treated with compounds (liganded sites))

## O=C(NCC1CC1)c1ccc(S(=O)(=O)n2cncn2)cc1 [HHS-0201, 4-((1H-1,2,4-triazol-1-yl)sulfonyl)-N-(cyclopropylmethyl)benzamide]
[8]
  liganded tyrosine site 13: HHS0201.Y (tyrosine sites that showed >80% reductions (SR >5) in probe labeling in cells treated with compounds (liganded sites))
[9]
  liganded tyrosine site 267: HHS0201.Y (tyrosine sites that showed >80% reductions (SR >5) in probe labeling in cells treated with compounds (liganded sites))
[10]
  liganded tyrosine site 685: HHS0201.Y (tyrosine sites that showed >80% reductions (SR >5) in probe labeling in cells treated with compounds (liganded sites))
[11]
  liganded tyrosine site 977: HHS0201.Y|HHS0301.Y|HHS0701.Y (tyrosine sites that showed >80% reductions (SR >5) in probe labeling in cells treated with compounds (liganded sites))
[12]
  liganded tyrosine site 92: HHS0201.Y (tyrosine sites that showed >80% reductions (SR >5) in probe labeling in cells treated with compounds (liganded sites))

## O=C(NCc1ccccc1)c1ccc(S(=O)(=O)n2cncn2)cc1 [HHS-0401, 4-((1H-1,2,4-triazol-1-yl)sulfonyl)-N-benzylbenzamide]
[13]
  liganded tyrosine site 164: HHS0401.Y (tyrosine sites that showed >80% reductions (SR >5) in probe labeling in cells treated with compounds (liganded sites))

## O=C(NC1CC1)c1ccc(S(=O)(=O)n2cncn2)cc1 [HHS-0101, 4-((1H-1,2,4-triazol-1-yl)sulfonyl)-N-cyclopropylbenzamide]
[14]
  liganded tyrosine site 957: HHS0101.Y|HHS0301.Y|HHS0401.Y (tyrosine sites that showed >80% reductions (SR >5) in probe labeling in cells treated with compounds (liganded sites))
[15]
  liganded tyrosine site 1267: HHS0101.Y|HHS0301.Y|HHS0401.Y (tyrosine sites that showed >80% reductions (SR >5) in probe labeling in cells treated with compounds (liganded sites))
[16]
  liganded tyrosine site 358: HHS0101.Y|HHS0201.Y|HHS0301.Y|HHS0701.Y (tyrosine sites that showed >80% reductions (SR >5) in probe labeling in cells treated with compounds (liganded sites))
[17]
  liganded tyrosine site 183: HHS0101.Y (tyrosine sites that showed >80% reductions (SR >5) in probe labeling in cells treated with compounds (liganded sites))
[18]
  liganded tyrosine site 210: HHS0101.Y|HHS0201.Y|HHS0701.Y (tyrosine sites that showed >80% reductions (SR >5) in probe labeling in cells treated with compounds (liganded sites))
  liganded tyrosine site 298: HHS0101.Y|HHS0701.Y (tyrosine sites that showed >80% reductions (SR >5) in probe labeling in cells treated with compounds (liganded sites))
